Source: US9278068B2, “Vesicle compositions” (Sensulin LLC, priority 2011, dated 2016)

Columns and labels:
HeLa cells = experiment: MTT assay for cytotoxicity; conditions: 2 h
Method: The cytotoxicity of the boronic acid derivatives from Table 1 was studied by MTT assay. 150,000 HeLa cells were plated in 96 well plates on the night before the experiments. On the day of experiments, the cells were treated with the boronic acid derivatives at three different concentrations (40 nM, 80 nM, and 160 nM) for 2 h. At the end of the incubation, MTT assays (In-Vitro toxicology MTT based assay kit, Sigma Aldrich, MO) were performed according to the manufacturer's protocol.

NF-κB = NF-κB assay for inflammation (nuclear translocation of NF-κB, immunocytochemistry, PCC); conditions: HeLa cells; for Inflammation (PCC) 40 nM / Inflammation (PCC) 80 nM / Inflammation (PCC) 160 nM: 2 h, PCC between nuclear and cytoplasmic fraction of NF-κB
Method: 15,000 HeLa cells were plated in 96 well plates the night before the experiments. On the day of the experiments, the cells were treated with the boronic acids (Table 1, below) at three different concentrations (40 nM, 80 nM, and 160 nM) for 2 h. At the end of the incubation, cells were washed with phosphate buffered saline (PBS) and were fixed in 4% paraformaldehyde for 15 min and permeablized with 0.01% Triton X-100 in PBS for 10 min. The cells were washed with PBS three times. Nonspecific sites were blocked with 5% bovine serum albumin (BSA) in PBS and incubated with the Anti-NF-κB for 1 h, followed by incubation with fluorescein isothiocyanate (FITC)-labeled secondary antibody. After washing the cells at the end of the incubation, the cells were treated with 4′,6-diamidino-2-phenylindole (DAPI) for 1 min and kept at 4° C. until further analysis. Images of the cells were acquired with a Beckman-Coulter 100 automated high-throughput microscope system and analyzed using Cytseer software (Vala Sciences, CA). The co-localization of NF-κB was quantified by measuring the PCC between the nuclear and cytoplasmic fraction of the NF-κB molecule. The PCC is a measure of the overlap between the pixel intensities of the nuclear and NF-κB images of the same cell. The PCC values can range from −1 to 1. […] A negative correlation (negative PCC value) indicates an absence of nuclear translocation.

Row | Compound | MTT (% Cell Survival) 40 nM (HeLa cells) [%] | MTT (% Cell Survival) 80 nM (HeLa cells) [%] | MTT (% Cell Survival) 160 nM (HeLa cells) [%] | Inflammation (PCC) 40 nM (NF-κB) | Inflammation (PCC) 80 nM (NF-κB) | Inflammation (PCC) 160 nM (NF-κB) | nuclear or cytoplasmic localization of NF-κB (FIG. 4 images) (NF-κB; boronic acids 80 nM, 2 hrs, LPS positive control)
1 | CC(C)[Si](C(C)C)(C(C)C)n1ccc(B(O)O)c1 [1-(triisopropylsilyl)pyrrol-E-3-boronic acid] | 72.92 | 65.92 | 56.94 | −0.0781 | 0.00445 | 0.169. | –
2 | OB(O)c1cnn(Cc2ccccc2)c1 [1-benzyl-1H-pyrazole-4-boronic acid] | 100.88 | 62.54 | 86.11 | −0.1081 | −0.0841 | 0.03839 | –
3 | C=C(B(O)O)c1ccccc1 [1-phenylvinylbornic acid] | 66.08 | 67.23 | 58.91 | −0.1145 | 0.03776 | 0 | –
4 | OB(O)c1cnc(OCc2ccccc2)nc1OCc1ccccc1 [2,4-bis(benzyloxy)pyrimidine-5-boronic acid] | 100.05 | 89.04 | 74.74 | −0.0647 | −0.0533 | 0.04709 | –
5 | COc1cccc(OC)c1B(O)O [2,6-dimethoxyphenylboronic acid] | 92.66 | 78.05 | 48.60 | −0.0679 | 0.03888 | 0.2607 | –
6 | CN(C)S(=O)(=O)c1ccccc1B(O)O [2-(N,N-dimethylsulphamoyl)benzene-boronic acid] | 74.92 | 76.38 | 47.32 | −0.1529 | −0.0404 | 0.03422 | –
7 | OB(O)c1ccc(Br)nc1 [2-bromopyridine-5-boronic acid] | 95.1013 | 120.589 | 35.78 | 0.00604 | 0.078 | 0.1446 | –
8 | OB(O)c1cc2ccccc2nc1Cl [2-chloro-3-quinolineboronic acid] | 30.1105 | 44.7882 | 32.43 | 0.08644 | 0.05095 | 0.193 | –
9 | OB(O)c1ccccc1Cl [2-chlorophenylboronic acid] | 86.3068 | 60.0002 | 45.45 | −0.0957 | .00949 | 0.09948 | –
10 | OB(O)c1ccnc(Cl)c1 [2-chloropyridine-4-boronic acid] | 84.93 | 58.47 | 56.36 | −0.1195 | 0.00374 | 0 | –
11 | N#Cc1ccccc1B(O)O [2-cyanophenylboronic acid] | 117.42 | 62.63 | 60.33 | −0.0641 | 0.0475 | 0.104 | –
12 | CCOc1ccc(B(O)O)cn1 [2-ethoxy-5-pyridine-boronic acid] | 81.40 | 69.58 | 33.80 | −0.1416 | −0.0136 | 0.1498 | –
13 | O=Cc1sccc1B(O)O [2-formyl-3-thiopheneboronic acid] | 55.3376 | 40.3684 | 46.21 | −0.0993 | −0.0793 | 0.1262 | –
14 | OB(O)c1ccccc1O [2-hydroxyphenylboronic acid] | 70.3314 | 55.8039 | 53.64 | −0.0198 | −0.0878 | 0.08884 | –
15 | OB(O)c1ccc2ccccc2c1 [2-napthylboronic acid] | 24.3831 | 37.2192 | 21.1 | 0.06402 | 0.2437 | 0.09593 | –
16 | CCCOc1ccccc1B(O)O [2-propoxyphenylboronic acid] | 45.7459 | 42.2099 | 41.95 | −0.0398 | 0.03035 | −0.04954 | –

Row | Compound | MTT (% Cell Survival) 40 nM (HeLa cells) [%] | MTT (% Cell Survival) 80 nM (HeLa cells) [%] | MTT (% Cell Survival) 160 nM (HeLa cells) [%] | Inflammation (PCC) 40 nM (NF-κB) | Inflammation (PCC) 80 nM (NF-κB) | Inflammation (PCC) 160 nM (NF-κB) | nuclear or cytoplasmic localization of NF-κB (FIG. 4 images) (NF-κB; boronic acids 80 nM, 2 hrs, LPS positive control)
17 | OB(O)c1cccs1 [2-thienylboronic acid] | 53.48 | 75.76 | 61.19 | −0.121 | −0.0343 | 0 | –
18 | Cc1noc(C)c1B(O)O [3,5-dimethylisoxazole-4-boronic acid] | 88.37 | 90.63 | 42.89 | −0.061 | 0.0057 | −0.01277 | –
19 | OB(O)c1cccc(OCc2ccccc2)c1 [3-(benzyloxy)phenylboronic acid] | 99.83 | 71.94 | 28.92 | −0.1159 | 0.0809 | 0.3768 | –
20 | O=[N+]([O-])/C=C/c1cccc(B(O)O)c1 [3-[(E)-2-nitrovinyl]phenylboronic acid] | 116.00 | 96.38 | 73.93 | −0.0456 | −0.0517 | 0.2058 | –
21 | NC(=O)c1cccc(B(O)O)c1 [3-aminocarbonylphenylboronic acid] | 101.02 | 77.93 | 29.19 | −0.0696 | 0.07022 | 0.1748 | –
22 | OB(O)c1cscc1Br [3-bromothiophene-4-boronic acid] | 76.45 | 95.90 | 97.49 | −0.0695 | 0.1568 | 0.1528 | –
23 | OB(O)c1cc(Br)cs1 [3-bromothiophene-5-boronic acid] | 116.67 | 97.63 | 62.08 | −0.1162 | −0.023 | 0.1539 | –
24 | O=C(O)c1cc(B(O)O)cc([N+](=O)[O-])c1 [3-carboxy-5-nitrophenylboronic acid] | 54.3094 | 46.2431 | 33.3 | −0.0136 | 0.03893 | 0.1227 | –
25 | N#Cc1cc(B(O)O)ccc1F [3-cyano-4-fluorophenylboronic acid] | 89.30 | 60.46 | 47.56 | −0.0231 | 0.1014 | 0 | –
26 | O=Cc1ccoc1B(O)O [3-formylfuran-2-boronic acid] | 107.84 | 73.72 | 65.18 | −0.0012 | 0.0274 | 0.08621 | –
27 | OB(O)c1cccc(O)c1 [3-hydroxyphenylboronic acid] | 104.60 | 62.75 | 89.29 | −0.1136 | 0.04005 | 0 | –
28 | OB(O)c1ccsc1 [3-thienylboronic acid] | 90.42 | 80.00 | 49.85 | −0.0062 | 0.1457 | 0.05963 | –
29 | CN(C)c1ccc(B(O)O)cc1 [4-(dimethylamino)phenylboronic acid] | 78.59 | 71.75 | 51.04 | −0.1318 | −0.0051 | 0.213 | –
30 | N#Cc1ccc(B(O)O)cc1 [4-cyanophenylboronic acid] | 60.40 | 63.69 | 54.22 | −0.0705 | −0.204 | 0.4879 | –
31 | OB(O)c1cccc2c1oc1ccccc12 [4-dibenzofuranboronic acid] | 71.48 | 75.50 | 70.50 | −0.0736 | −0.0438 | −0.128 | –
32 | lipopolysaccharide [LPS, reference compound] | – | – | – | – | – | – | nuclear translocation of NF-κB
